The values that follow come from ChEMBL document CHEMBL3045241, “Design, synthesis, and docking studies of novel telmisartanglitazone hybrid analogs for the treatment of metabolic syndrome” (Med Chem Res, 2009).

A word on the Ki: it is the dissociation constant of the complex between target and ligand, obtained from inhibition or displacement.

For assay [1], the target named is T1, Peroxisome proliferator-activated receptor gamma (Mus musculus) (UniProt P37238).
T1 sequence (whole entry): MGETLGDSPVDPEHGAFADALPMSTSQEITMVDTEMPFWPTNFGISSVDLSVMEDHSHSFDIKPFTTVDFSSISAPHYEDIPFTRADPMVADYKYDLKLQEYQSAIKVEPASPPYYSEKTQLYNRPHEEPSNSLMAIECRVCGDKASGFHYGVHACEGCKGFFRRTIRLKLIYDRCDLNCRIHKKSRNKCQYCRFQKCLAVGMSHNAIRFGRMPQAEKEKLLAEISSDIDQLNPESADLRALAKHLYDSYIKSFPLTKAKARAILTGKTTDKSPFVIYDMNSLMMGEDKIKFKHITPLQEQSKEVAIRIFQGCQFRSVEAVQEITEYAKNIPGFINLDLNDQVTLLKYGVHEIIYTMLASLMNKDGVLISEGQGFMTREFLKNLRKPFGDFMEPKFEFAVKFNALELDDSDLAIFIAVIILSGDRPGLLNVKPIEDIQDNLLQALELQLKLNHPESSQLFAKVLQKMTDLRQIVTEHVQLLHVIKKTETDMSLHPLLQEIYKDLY
As to the kind of experiment: Agonist activity at Mus musculus (mouse) PPARgamma LBD expressed in african green monkey CV-1 cells co-expressing GAL4 assessed as […] at 1 uM after 24 hr by luciferase assay relative to rosiglitazone. The assay is classed as cell-based.

Assay [2] concerns the target T2, Type-1 angiotensin II receptor A (Rattus norvegicus, UniProt P25095).
T2 sequence (P25095 whole entry): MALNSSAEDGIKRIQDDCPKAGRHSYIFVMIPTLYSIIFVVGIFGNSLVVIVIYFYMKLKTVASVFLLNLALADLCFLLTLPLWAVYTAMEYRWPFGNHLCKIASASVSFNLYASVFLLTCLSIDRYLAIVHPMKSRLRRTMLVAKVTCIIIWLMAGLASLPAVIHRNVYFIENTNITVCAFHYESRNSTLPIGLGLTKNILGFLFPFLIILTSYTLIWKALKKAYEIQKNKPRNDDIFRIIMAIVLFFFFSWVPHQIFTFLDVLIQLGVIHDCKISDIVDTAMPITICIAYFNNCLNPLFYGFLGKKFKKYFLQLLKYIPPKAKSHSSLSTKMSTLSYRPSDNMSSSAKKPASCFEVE
As to the kind of experiment: Displacement of [125I]-SI-Ang-2 from AT1 receptor in Rattus norvegicus Sprague-Dawley (rat) liver membranes after 2 hr. On the set-up: species or system Membrane.

The subject of the next assay is 3T3-L1. The assay can be described thus: Induction of adipocyte differentiation in Mus musculus (mouse) 3T3L1 cells at 1 to 5 uM. It is filed as functional, cell-based.

Calls of active or inactive are those of the source. The rule behind the calls is not given here.

For the compound `CCCc1nc2c(C)cc(Br)cc2n1CCOc1ccc(CC2SC(=O)NC2=O)cc1C(=O)OC` (stereo unspecified), the %max in assay [1] was found to be 51.6%. The same compound registered a Ki in assay [2] above 10 µM. For `CCCc1nc2c(C)cc(-c3ccccc3)cc2n1CCOc1ccc(CC2SC(=O)NC2=O)cc1C(=O)OC` (stereo unspecified), in that order: 11.9% and above 10 µM. Take `CCCc1nc2c(C)cc(-c3nc4ccccc4n3C)cc2n1Cc1ccc(-c2ccccc2C(=O)O)cc1`: the %max in assay [1] worked out at 21.2%. Also, the outcome with 3T3-L1 was Active. `CCCc1nc2c(C)cc(-c3nc4ccccc4n3C)cc2n1CCOc1ccc(CC2SC(=O)NC2=O)cc1C(=O)OC` (stereo unspecified) came in with a Ki in assay [2] above 10 µM. `COC(=O)c1cc(CC2SC(=O)NC2=O)ccc1OCCN(C)C(=O)CCCCC1CCCCC1` (stereo unspecified): the %max in assay [1] stood at 90.4%. The compound also displayed a Ki in assay [2] above 10 µM. For `COC(=O)c1cc(CC2SC(=O)NC2=O)ccc1OCCn1c(CCCCC2CCCCC2)nc2ccccc21` (stereo unspecified), in that order: 38.7% and above 10 µM.
